Experimental findings from BindingDB's records for doi:10.1016/S1074-5521(02)00281-8 (Massachusetts Institute of Technology, 2002) are described below.

Starred links: 1 amine or outer side, 2 acyl side, 3 side chain; linkers in the order of their positions; H or OH if unused. Positions of bridges follow the written chain, without caps; N, C: chain ends. Non-standard residues stand in square brackets, D forms with d. Residues, ends and D or L forms follow the SMILES beside them. Chains are numbered I, II in the order given. Actinocin(9to1) = Cc1c2oc3c(C)ccc(C(=O)[*:1])c3nc-2c(C(=O)[*:2])c(N)c1=O; NMeV = CN[C@H](C(=O)O)C(C)C; Sar = CNCC(=O)O

The test deals with T1, Dolichyl-diphosphooligosaccharide--protein glycosyltransferase subunit 1 (Saccharomyces cerevisiae, UniProt P41543).
T1 sequence (P41543 whole entry): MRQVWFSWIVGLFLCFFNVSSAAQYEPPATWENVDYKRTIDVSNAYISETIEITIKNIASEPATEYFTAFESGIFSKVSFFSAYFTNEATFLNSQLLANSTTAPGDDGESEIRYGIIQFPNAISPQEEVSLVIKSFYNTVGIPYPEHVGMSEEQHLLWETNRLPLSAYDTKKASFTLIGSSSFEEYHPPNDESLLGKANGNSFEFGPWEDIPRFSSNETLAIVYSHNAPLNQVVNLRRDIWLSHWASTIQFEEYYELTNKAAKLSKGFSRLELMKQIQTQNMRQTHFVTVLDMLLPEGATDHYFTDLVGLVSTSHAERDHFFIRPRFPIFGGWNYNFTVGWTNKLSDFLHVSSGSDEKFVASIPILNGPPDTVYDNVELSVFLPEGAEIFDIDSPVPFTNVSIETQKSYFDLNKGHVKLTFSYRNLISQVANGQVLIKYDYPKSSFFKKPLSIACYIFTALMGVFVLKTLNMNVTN
Nature of the test: Competition Assay. Conditions: pH 7.5; 0 °C. The text has this:
Competition assay using S. cerevisiae oligosaccharyl transferase (OT)with disaccharide donor Dol-P-P-(GlcNAc)2 and the tripeptide substrate Bz-Asn-Leu-Thr-NHMe.
Compound `O=C(Nc1ccc(C2=NCCN2)cc1)c1ccc(C(=O)Nc2ccc(C3=NCCN3)cc2)c(Cl)c1` yielded a Ki of 4 µM. With `COc1ccc(NS(=O)(=O)c2ccc(NC(=O)C(CCSC)NC(N)=O)cc2)cc1` (stereo not drawn) [2-(aminocarbonylamino)-N-[4-[(4-methoxyphenyl)sulfamoyl]phenyl]-4-methylsulfanyl-butanamide] the figure was 34 µM.

With `COc1ccc(-n2cnnc2SCC(=O)Nc2cc(C)on2)cc1` [2-[[4-(4-methoxyphenyl)-1,2,4-triazol-3-yl]sulfanyl]-N-(5-methyl-1,2-oxazol-3-yl)acetamide], the Ki worked out at 100 µM. Next, `Cc1c2oc3c(C)ccc(C(=O)N[C@@H]4C(=O)N[C@H](C(C)C)C(=O)N5CCC[C@H]5C(=O)N(C)CC(=O)N(C)[C@@H](C(C)C)C(=O)O[C@@H]4C)c3nc-2c(C(=O)N[C@@H]2C(=O)N[C@H](C(C)C)C(=O)N3CCC[C@H]3C(=O)N(C)CC(=O)N(C)[C@@H](C(C)C)C(=O)O[C@@H]2C)c(N)c1=O` [2-amino-N,N''-bis[(3R,6S,7R,10S,16S)-3,10-diisopropyl-2,5,9,12,15-pentaketo-7,11,14-trimethyl-8-oxa-1,4,11,14-tetrazabicyclo[14.3.0]nonadecan-6-yl]-3-keto-4,6-dimethyl-phenoxazine-1,9-dicarboxamide] (I: T[dV]P[Sar][NMeV] / II: T[dV]P[Sar][NMeV]; ester I:1-I:C, II:1-II:C; linker I:N-II:N via Actinocin(9to1)): 0.041 µM; `COc1ccc(OC)c(Nc2nc(NCCCN(C)C)nc(N)c2[N+](=O)[O-])c1` [3-[[4-amino-6-(2,5-dimethoxyanilino)-5-nitro-pyrimidin-2-yl]amino]propyl-dimethyl-amine]: 1.1 µM; `CC[N+](C)(CC)CCCCOc1ccc2c(c1)C(=O)c1cc(OCCCC[N+](C)(CC)CC)ccc1-2` [4-[7-[4-[diethyl(methyl)ammonio]butoxy]-9-keto-fluoren-2-yl]oxybutyl-diethyl-methyl-ammonium;iodide]: 4.5 µM. Next, `COC(=O)c1ccc(O)c2nc3c(C=O)c(O)cc(O)c3nc12` [6-formyl-4,7-dihydroxy-9-keto-5H-phenazine-1-carboxylic acid methyl ester]: 0.062 µM; `CC(=O)Nc1ccc(NC(=O)c2ccc(Cl)nc2)cc1` [Glycopeptide, 2]: 2.5 µM.

Usually Ki stands for the equilibrium dissociation constant of an inhibitor or competing ligand from its target.
